Results taken from patent US20210255193A1, “LYSINE REACTIVE PROBES AND USES THEREOF” (The Scripps Research Institute, priority 2017, published 2021).
Entries after “also recorded” stand apart in the source; their conditions may differ.

How the values were obtained:
[1] = target: T1, RINT1 RAD50-interacting protein 1 (Homo sapiens, UniProt Q6NUQ1); experiment: competitive isoTOP-ABPP; type: binding; conditions: for R value (DMSO/fragment) for probe 1 labeling: Q6NUQ1_K771; for R value (DMSO/fragment) for probe 1 labeling / isoTOP-ABPP reactivity ratio at lysine Q6NUQ1_K771 / isoTOP-ABPP ratio (R) at liganded lysine Q6NUQ1_K771: 50 uM, in vitro; for R value (DMSO/fragment) for probe 1 labeling / isoTOP-ABPP reactivity ratio at lysine Q6NUQ1_K771: 231 sol; for isoTOP-ABPP ratio (R) at liganded lysine Q6NUQ1_K771: sol, 231
T1 construct: isoTOP-ABPP experiments performed in cell lysates (in vitro); endogenous in cells; host or cells: soluble proteome of human cancer cell lines (MDA-MB-231; Ramos and Jurkat also prepared)
How it was run: (§1)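 Competition format: fragment (50 μM activated ester, 100 μM guanidinylating agent) versus vehicle in lysate, then lysine probe STP-alkyne at 0.1 mM for 1 h. Quantitation by light/heavy TEV-tag MS1 peak areas, reported as R.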

[2] = target: T2, SIN3A Paired amphipathic helix protein Sin3a (Homo sapiens, UniProt Q96ST3); experiment: competitive isoTOP-ABPP; type: binding; conditions: for R value (DMSO/fragment) for probe 1 labeling: Q96ST3_K155; for R value (DMSO/fragment) for probe 1 labeling / isoTOP-ABPP reactivity ratio at lysine Q96ST3_K155 / isoTOP-ABPP ratio (R) at liganded lysine Q96ST3_K155: 50 uM, in vitro; for R value (DMSO/fragment) for probe 1 labeling / isoTOP-ABPP reactivity ratio at lysine Q96ST3_K155: 231 sol; for isoTOP-ABPP ratio (R) at liganded lysine Q96ST3_K155: sol, 231
T2 construct: isoTOP-ABPP experiments performed in cell lysates (in vitro); endogenous in cells; host or cells: soluble proteome of human cancer cell lines (MDA-MB-231; Ramos and Jurkat also prepared)
T2 sequence (Q96ST3 1-1273): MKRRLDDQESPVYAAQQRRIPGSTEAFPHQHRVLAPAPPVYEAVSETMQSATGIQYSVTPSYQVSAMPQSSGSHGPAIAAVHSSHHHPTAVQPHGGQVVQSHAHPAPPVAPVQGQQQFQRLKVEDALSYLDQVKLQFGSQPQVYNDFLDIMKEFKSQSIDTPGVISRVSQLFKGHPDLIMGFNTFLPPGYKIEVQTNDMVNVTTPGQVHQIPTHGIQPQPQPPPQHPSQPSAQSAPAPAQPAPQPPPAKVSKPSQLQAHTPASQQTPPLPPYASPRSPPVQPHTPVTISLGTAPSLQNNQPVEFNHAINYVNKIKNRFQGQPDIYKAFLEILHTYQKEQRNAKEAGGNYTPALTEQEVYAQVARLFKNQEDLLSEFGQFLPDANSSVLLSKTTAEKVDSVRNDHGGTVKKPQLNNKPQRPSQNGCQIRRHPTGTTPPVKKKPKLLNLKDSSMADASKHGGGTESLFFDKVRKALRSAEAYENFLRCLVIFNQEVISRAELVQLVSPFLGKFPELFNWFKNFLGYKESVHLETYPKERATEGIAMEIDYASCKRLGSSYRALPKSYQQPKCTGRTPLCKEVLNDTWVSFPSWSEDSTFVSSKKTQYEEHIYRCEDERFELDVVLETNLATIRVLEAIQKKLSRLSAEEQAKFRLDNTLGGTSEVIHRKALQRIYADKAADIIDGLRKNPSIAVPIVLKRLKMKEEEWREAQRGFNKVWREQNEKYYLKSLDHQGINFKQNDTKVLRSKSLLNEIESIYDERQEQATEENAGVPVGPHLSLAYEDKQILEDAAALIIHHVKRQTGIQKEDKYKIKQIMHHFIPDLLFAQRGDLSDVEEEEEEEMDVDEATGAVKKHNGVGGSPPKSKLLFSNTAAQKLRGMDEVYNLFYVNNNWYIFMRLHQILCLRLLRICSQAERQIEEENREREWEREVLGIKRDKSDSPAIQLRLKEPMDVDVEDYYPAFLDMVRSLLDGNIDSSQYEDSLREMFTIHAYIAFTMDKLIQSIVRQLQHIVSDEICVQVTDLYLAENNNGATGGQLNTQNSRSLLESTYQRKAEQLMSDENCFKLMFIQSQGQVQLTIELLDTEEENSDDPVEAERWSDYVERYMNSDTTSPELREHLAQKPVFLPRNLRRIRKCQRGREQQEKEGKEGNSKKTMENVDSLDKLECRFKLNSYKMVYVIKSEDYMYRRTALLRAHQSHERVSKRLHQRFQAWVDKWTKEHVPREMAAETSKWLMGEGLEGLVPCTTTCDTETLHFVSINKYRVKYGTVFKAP
How it was run: as §1

T1 sequence (Q6NUQ1 whole entry, the tested form may be a part): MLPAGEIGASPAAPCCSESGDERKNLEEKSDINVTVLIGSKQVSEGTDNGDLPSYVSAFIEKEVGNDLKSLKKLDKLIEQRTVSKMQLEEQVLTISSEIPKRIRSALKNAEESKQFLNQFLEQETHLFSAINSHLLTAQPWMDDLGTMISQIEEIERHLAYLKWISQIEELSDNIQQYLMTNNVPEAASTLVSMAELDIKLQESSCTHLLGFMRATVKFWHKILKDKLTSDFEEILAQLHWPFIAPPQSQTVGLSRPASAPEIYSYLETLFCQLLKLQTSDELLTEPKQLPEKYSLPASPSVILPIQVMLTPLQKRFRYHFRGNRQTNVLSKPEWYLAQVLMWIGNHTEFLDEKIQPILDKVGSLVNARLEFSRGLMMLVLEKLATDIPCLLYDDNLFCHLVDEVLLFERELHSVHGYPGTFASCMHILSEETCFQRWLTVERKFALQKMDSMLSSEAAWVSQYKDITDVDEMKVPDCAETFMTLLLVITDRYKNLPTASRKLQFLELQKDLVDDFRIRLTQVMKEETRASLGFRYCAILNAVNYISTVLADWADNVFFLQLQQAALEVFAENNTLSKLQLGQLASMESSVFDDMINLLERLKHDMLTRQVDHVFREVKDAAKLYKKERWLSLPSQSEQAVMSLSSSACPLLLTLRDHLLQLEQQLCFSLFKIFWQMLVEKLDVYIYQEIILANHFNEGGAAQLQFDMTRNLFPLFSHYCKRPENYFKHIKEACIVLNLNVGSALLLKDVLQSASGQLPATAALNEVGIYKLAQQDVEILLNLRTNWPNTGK

Row | SMILES | isoTOP-ABPP reactivity ratio at lysine Q6NUQ1_K771 [1] | isoTOP-ABPP reactivity ratio at lysine Q96ST3_K155 [2] | isoTOP-ABPP ratio (R) at liganded lysine Q6NUQ1_K771 [1] | isoTOP-ABPP ratio (R) at liganded lysine Q96ST3_K155 [2] | also measured
1 | O=C(CCc1cn(-c2ccccc2)nc1-c1ccccc1)Oc1c(F)c(F)c(F)c(F)c1F [fragment 19, Pentafluorophenyl 3-(1,3-diphenyl-1H-pyrazol-4-yl)propanoate] | – | – | – | – | R value (DMSO/fragment) for probe 1 labeling [1]: 1.2; R value (DMSO/fragment) for probe 1 labeling [2]: 1.6
2 | O=C(Oc1c(F)c(F)c(F)c(F)c1F)C(c1ccccc1)c1ccccc1 [fragment 20, Pentafluorophenyl 2,2-diphenylacetate] | – | – | – | – | R value (DMSO/fragment) for probe 1 labeling [1]: 1.0; R value (DMSO/fragment) for probe 1 labeling [2]: 1.2
3 | O=C(Oc1c(F)c(F)c(F)c(F)c1F)c1cc(C(F)(F)F)cc(C(F)(F)F)c1 [fragment 21, Pentafluorophenyl 3,5-bis(trifluoromethyl)benzoate] | – | – | – | – | R value (DMSO/fragment) for probe 1 labeling [1]: 2.2; R value (DMSO/fragment) for probe 1 labeling [2]: 20.0; engagement of K155, competition of probe 1 labeling ([2]; SIN3A K155, 21 50 μM): engages K155 in SIN3A; also recorded: fully competes probe 1 labeling of K155
4 | Cn1cc(CC(=O)Oc2c(F)c(F)c(F)c(F)c2F)c2ccccc21 [fragment 22, Pentafluorophenyl 2-(1-methyl-1H-indol-3-yl)acetate] | – | – | – | – | R value (DMSO/fragment) for probe 1 labeling [1]: 1.0; R value (DMSO/fragment) for probe 1 labeling [2]: 3.9
5 | COc1cc(CCC(=O)Oc2c(F)c(F)c(F)c(F)c2F)cc(OC)c1OC [fragment 23, Pentafluorophenyl 3-(3,4,5-trimethoxyphenyl)propanoate] | – | – | – | – | R value (DMSO/fragment) for probe 1 labeling [1]: 1.1; R value (DMSO/fragment) for probe 1 labeling [2]: 4.1
6 | O=C(Oc1c(F)c(F)c(F)c(F)c1F)C1CCN(C(=O)OCc2ccccc2)CC1 [fragment 24, 1-Benzyl 4-(pentafluorophenyl) piperidine-1,4-dicarboxylate] | 1.0 | 1.1 | – | – | –
7 | O=C(Oc1c(F)c(F)c(F)c(F)c1F)c1ccc2ccccc2n1 [fragment 25, Pentafluorophenyl quinoline-2-carboxylate] | 1.4 | 11.1 | – | – | –
8 | O=C(CCc1coc2cc(F)ccc2c1=O)Oc1c(F)c(F)c(F)c(F)c1F [fragment 26, Pentafluorophenyl 3-(7-fluoro-4-oxo-4H-chromen-3-yl)propanoate] | 0.9 | 1.7 | – | – | –
9 | O=C(CN1C(=O)c2ccccc2C1=O)Oc1c(F)c(F)c(F)c(F)c1F [fragment 27, Pentafluorophenyl 2-(1,3-dioxoisoindolin-2-yl)acetate] | 1.1 | 11.7 | – | – | –
10 | CCn1cc(C(=O)Oc2c(F)c(F)c(F)c(F)c2F)c(=O)c2ccc(C)nc21 [fragment 28, Pentafluorophenyl 1-ethyl-7-methyl-4-oxo-1,4-dihydro-1,8-naphthyridine-3-carboxylate] | 0.8 | 4.9 | – | – | –
11 | O=C(CCc1cn(-c2ccccc2)nc1-c1ccccc1)Oc1ccc([N+](=O)[O-])cc1[N+](=O)[O-] [fragment 29, 2,4-Dinitrophenyl 3-(1,3-diphenyl-1H-pyrazol-4-yl)propanoate] | 1.2 | 1.5 | – | – | –
12 | O=C(Oc1ccc([N+](=O)[O-])cc1[N+](=O)[O-])C(c1ccccc1)c1ccccc1 [fragment 30, 2,4-Dinitrophenyl 2,2-diphenylacetate] | 1.7 | 20.0 | – | – | –
13 | O=C(Oc1ccc([N+](=O)[O-])cc1[N+](=O)[O-])c1cc(C(F)(F)F)cc(C(F)(F)F)c1 [fragment 31, 2,4-Dinitrophenyl 3,5-bis(trifluoromethyl)benzoate] | 20.0 | 18.6 | – | – | –
14 | Cn1cc(CC(=O)Oc2ccc([N+](=O)[O-])cc2[N+](=O)[O-])c2ccccc21 [fragment 32, 2,4-Dinitrophenyl 2-(1-methyl-1H-indol-3-yl)acetate] | 1.2 | 17.5 | – | – | –
15 | COc1cc(CCC(=O)Oc2ccc([N+](=O)[O-])cc2[N+](=O)[O-])cc(OC)c1OC [fragment 33, 2,4-Dinitrophenyl 3-(3,4,5-trimethoxyphenyl)propanoate] | 1.0 | 2.0 | – | – | –
16 | O=C(Oc1ccc([N+](=O)[O-])cc1[N+](=O)[O-])C1CCN(C(=O)OCc2ccccc2)CC1 [fragment 34, 1-Benzyl 4-(2,4-dinitrophenyl) piperidine-1,4-dicarboxylate] | – | – | 1.3 | 0.8 | –
17 | O=C(Oc1ccc([N+](=O)[O-])cc1[N+](=O)[O-])c1ccc2ccccc2n1 [fragment 35, 2,4-Dinitrophenyl quinoline-2-carboxylate] | – | – | 1.7 | 1.6 | –
18 | O=C(CCc1coc2cc(F)ccc2c1=O)Oc1ccc([N+](=O)[O-])cc1[N+](=O)[O-] [fragment 36, 2,4-Dinitrophenyl 3-(7-fluoro-4-oxo-4H-chromen-3-yl)propanoate] | – | – | 0.9 | 1.4 | –
19 | O=C(Oc1ccc([N+](=O)[O-])cc1[N+](=O)[O-])c1ccc(-c2ccccc2)cc1 [fragment 37, 2,4-Dinitrophenyl [1,1′-biphenyl]-4-carboxylate] | – | – | 1.3 | 1.1 | –
20 | O=C(CC12CC3CC(CC(C3)C1)C2)Oc1ccc([N+](=O)[O-])cc1[N+](=O)[O-] [fragment 38, 2,4-Dinitrophenyl 2-(adamantan-1-yl)acetate] | – | – | 1.2 | 1.2 | –
21 | O=C(Oc1ccc([N+](=O)[O-])cc1[N+](=O)[O-])c1ccc(Oc2ccccc2)cc1 [fragment 39, 2,4-Dinitrophenyl 4-phenoxybenzoate] | – | – | 1.5 | 1.0 | –
22 | O=C(Oc1ccc([N+](=O)[O-])cc1[N+](=O)[O-])c1ccccc1Nc1cccc(C(F)(F)F)c1 [fragment 40, 2,4-Dinitrophenyl 2-((3-(trifluoromethyl)phenyl)amino)benzoate] | – | – | 1.1 | 1.1 | –
23 | CC(C)(C)OC(=O)NCCCC(=O)Oc1ccc([N+](=O)[O-])cc1[N+](=O)[O-] [fragment 41, 2,4-Dinitrophenyl 4-((tert-butoxycarbonyl)amino)butanoate] | – | – | 0.8 | 1.3 | –
24 | O=C(Oc1ccc([N+](=O)[O-])cc1[N+](=O)[O-])C(c1ccccc1)(c1ccccc1)c1ccccc1 [fragment 42, 2,4-Dinitrophenyl 2,2,2-triphenylacetate] | – | – | 1.1 | 0.9 | –
25 | CC(=O)Oc1ccc([N+](=O)[O-])cc1[N+](=O)[O-] [fragment 43, 2,4-Dinitrophenyl acetate] | – | – | 1.0 | 1.2 | –
26 | N#Cc1ccc(C(=O)Oc2ccc([N+](=O)[O-])cc2[N+](=O)[O-])cc1 [fragment 44, 2,4-Dinitrophenyl 4-cyanobenzoate] | – | – | – | – | isoTOP-ABPP ratio, lysine Q6NUQ1_K771 ([1]; 50 uM_231_sol_in vitro): 1.7; isoTOP-ABPP ratio, lysine Q96ST3_K155 ([2]; 50 uM_231_sol_in vitro, possible other lysine Q96ST3_K152): 1.5
27 | COC(=O)NC(=NC(=O)OCC1c2ccccc2-c2ccccc21)n1cccn1 [fragment 49, N-Methoxycarbonyl-N′-9-fluorenylmethoxycarbonyl-pyrazole-1-carboxamidine] | – | – | – | – | isoTOP-ABPP ratio, lysine Q6NUQ1_K771 ([1]; 100 uM_231_sol_in vitro): 1.1
